{
  "source": "ChEMBL document CHEMBL2157933",
  "about": "“The synthesis and antituberculosis activity of 5'-nor carbocyclic uracil derivatives” (Bioorg Med Chem, 2012)",
  "key": {"[1]": {"experiment": "(§1) Cytotoxicity against african green monkey Vero cells after 72 hrs by MTT assay", "type": "cell-based", "conditions": "chlorocebus sabaeus, Vero cells"}, "[2]": {"test_system": "Mycobacterium tuberculosis", "experiment": "Antibacterial activity against Mycobacterium tuberculosis H37Rv by BACTEC method", "type": "functional"}, "[3]": {"test_system": "Mycobacterium tuberculosis", "experiment": "Antibacterial activity against Mycobacterium tuberculosis H37Rv assessed as growth inhibition at 40 ug/ml by BACTEC method", "type": "functional", "conditions": "read-out: GI"}, "[4]": {"test_system": "Mycobacterium tuberculosis", "experiment": "Antibacterial activity against Mycobacterium tuberculosis H37Rv under anaerobic condition assessed as growth inhibition at 20 ug/ml after 2 to 3 days by BACTEC method", "type": "functional, organism-based"}, "[5]": {"test_system": "Mycobacterium tuberculosis", "experiment": "Antibacterial activity against Mycobacterium tuberculosis H37Rv assessed as growth inhibition at 20 ug/ml by BACTEC method", "type": "functional", "conditions": "read-out: GI"}, "[6]": {"test_system": "Mycobacterium tuberculosis", "experiment": "Antibacterial activity against Mycobacterium tuberculosis H37Rv assessed as growth inhibition at 20 to 40 ug/ml by BACTEC method", "type": "functional"}, "[7]": {"test_system": "Mycobacterium tuberculosis", "experiment": "Antibacterial activity against Mycobacterium tuberculosis H37Rv under anaerobic condition assessed as growth inhibition at 20 ug/ml by BACTEC method", "type": "functional", "conditions": "read-out: GI"}, "Vero": {"test_system": "Vero", "experiment": "as §1", "type": "cell-based", "conditions": "chlorocebus sabaeus, vero, 72 h"}, "[8]": {"test_system": "Mycobacterium tuberculosis", "experiment": "Antibacterial activity against Mycobacterium tuberculosis H37Rv assessed as growth inhibition at 10 ug/ml by BACTEC method", "type": "functional", "conditions": "read-out: GI"}, "[9]": {"test_system": "Mycobacterium tuberculosis", "experiment": "Antibacterial activity against Mycobacterium tuberculosis H37Rv under anaerobic condition assessed as growth inhibition at 10 ug/ml by BACTEC method", "type": "functional", "conditions": "read-out: GI"}, "[10]": {"test_system": "Mycobacterium tuberculosis", "experiment": "Antibacterial activity against Mycobacterium tuberculosis H37Rv under anaerobic condition by BACTEC method", "type": "functional"}, "[11]": {"test_system": "Mycobacterium tuberculosis", "experiment": "Antibacterial activity against Mycobacterium tuberculosis H37Rv under anaerobic condition assessed as growth inhibition at 10 to 20 ug/ml by BACTEC method", "type": "functional"}, "[12]": {"test_system": "Mycobacterium tuberculosis", "experiment": "Antibacterial activity against Mycobacterium tuberculosis H37Rv under anaerobic condition assessed as growth inhibition at 5 ug/ml by BACTEC method", "type": "functional"}, "[13]": {"test_system": "Mycobacterium tuberculosis", "experiment": "Antibacterial activity against Mycobacterium tuberculosis H37Rv under anaerobic condition assessed as growth inhibition at 0.1 ug/ml by BACTEC method", "type": "functional", "conditions": "read-out: GI"}, "[14]": {"test_system": "Mycobacterium tuberculosis", "experiment": "Antibacterial activity against Mycobacterium tuberculosis H37Rv under anaerobic condition assessed as growth inhibition at 2 ug/ml by BACTEC method", "type": "functional", "conditions": "read-out: GI"}, "[15]": {"test_system": "Mycobacterium tuberculosis", "experiment": "Antibacterial activity against Mycobacterium tuberculosis H37Rv under anaerobic condition assessed as growth inhibition at 100 ug/ml by BACTEC method", "type": "functional", "conditions": "read-out: GI"}, "[16]": {"test_system": "Mycobacterium tuberculosis", "experiment": "Antibacterial activity against Mycobacterium tuberculosis H37Rv under anaerobic condition assessed as growth inhibition at 1 ug/ml by BACTEC method", "type": "functional", "conditions": "read-out: GI"}, "[17]": {"test_system": "Mycobacterium tuberculosis", "experiment": "Antibacterial activity against Mycobacterium tuberculosis H37Rv assessed as growth inhibition at 1 ug/ml by BACTEC method", "type": "functional", "conditions": "read-out: GI"}, "[18]": {"conditions": "Mycobacterium tuberculosis, H37Rv, read-out: MIC99"}},
  "note": "Active and inactive are the calls of the source. No cut-off for these calls is given here.",
  "data": [
    {"smiles": "O=c1ccn(C2C=CC(O)C2)c(=O)[nH]1", "note": "(racemic)", "values": [
      {"measurement": "CC50 at 72 h", "setting": "[1]", "value": "> 200", "unit": "µg/mL"},
      {"measurement": "MIC99", "setting": "[2]", "value": "> 40", "unit": "µg/mL"},
      {"measurement": "inhibition of growth at 40 µg/mL", "setting": "[3]", "value": 75, "unit": "%"}
    ]},
    {"smiles": "Cc1cc(=O)[nH]c(=O)n1C1C=CC(O)C1", "note": "(racemic)", "values": [
      {"measurement": "growth inhibition (GI)", "setting": "[4]", "value": "inactive"},
      {"measurement": "CC50 at 72 h", "setting": "[1]", "value": "> 200", "unit": "µg/mL"},
      {"measurement": "MIC99", "setting": "[2]", "value": 40, "unit": "µg/mL"},
      {"measurement": "inhibition of growth at 40 µg/mL", "setting": "[3]", "value": 100, "unit": "%"}
    ]},
    {"smiles": "O=c1[nH]c(=O)n(C2C=CC(O)C2)cc1I", "note": "(racemic)", "values": [
      {"measurement": "inhibition of growth at 20 µg/mL", "setting": "[5]", "value": 99, "unit": "%"},
      {"measurement": "CC50 at 72 h", "setting": "[1]", "value": "> 200", "unit": "µg/mL"},
      {"measurement": "MIC99", "setting": "[2]", "value": 20, "unit": "µg/mL"},
      {"measurement": "inhibition of growth at 40 µg/mL", "setting": "[3]", "value": 100, "unit": "%"}
    ]},
    {"smiles": "CCCCCCCCC#Cc1cn(C2C=CC(O)C2)c(=O)[nH]c1=O", "note": "(racemic)", "values": [
      {"measurement": "growth inhibition (GI)", "setting": "[4]", "value": "inactive"},
      {"measurement": "CC50 at 72 h", "setting": "[1]", "value": "> 125", "unit": "µg/mL"},
      {"measurement": "MIC99", "setting": "[2]", "value": 40, "unit": "µg/mL"},
      {"measurement": "inhibition of growth at 40 µg/mL", "setting": "[3]", "value": 100, "unit": "%"}
    ]},
    {"smiles": "CCCCCCCCCCC#Cc1cn(C2C=CC(O)C2)c(=O)[nH]c1=O", "note": "(racemic)", "values": [
      {"measurement": "CC50 at 72 h", "setting": "[1]", "value": "> 125", "unit": "µg/mL"},
      {"measurement": "growth inhibition (GI)", "setting": "[6]", "value": 99, "unit": "%"},
      {"measurement": "MIC99", "setting": "[2]", "value": 20, "unit": "µg/mL"}
    ]},
    {"smiles": "CCCCCCCCCCCCC#Cc1cn(C2C=CC(O)C2)c(=O)[nH]c1=O", "note": "(racemic)", "values": [
      {"measurement": "inhibition of growth at 20 µg/mL", "setting": "[7]", "value": 100, "unit": "%"},
      {"measurement": "CC50", "setting": "Vero", "value": 125, "unit": "µg/mL"},
      {"measurement": "growth inhibition (GI)", "setting": "[6]", "value": 100, "unit": "%"},
      {"measurement": "inhibition of growth at 10 µg/mL", "setting": "[8]", "value": 99, "unit": "%"},
      {"measurement": "MIC99", "setting": "[2]", "value": 10, "unit": "µg/mL"},
      {"measurement": "inhibition of growth at 10 µg/mL", "setting": "[9]", "value": 99, "unit": "%"}
    ]},
    {"smiles": "CCCCCCCCCCCCC#Cc1cn(C2C=CC(O)C2)c(=O)[nH]c1=O", "note": "(single isomer, unassigned; (-))", "values": [
      {"measurement": "CC50 at 72 h", "setting": "[1]", "value": "> 100", "unit": "µg/mL"},
      {"measurement": "MIC99", "setting": "[10]; [18]", "value": 5, "unit": "µg/mL"},
      {"measurement": "growth inhibition (GI)", "setting": "[11]", "value": 100, "unit": "%"},
      {"measurement": "growth inhibition (GI)", "setting": "[12]", "value": 99, "unit": "%"}
    ]},
    {"smiles": "CCCCCCCCCCCCC#Cc1cn(C2C=CC(O)C2)c(=O)[nH]c1=O", "note": "(stereo in doubt; (+)6)", "values": [
      {"measurement": "MIC99", "setting": "[10]", "value": 10, "unit": "µg/mL"},
      {"measurement": "growth inhibition (GI)", "setting": "[12]", "value": 25, "unit": "%"}
    ]},
    {"smiles": "CC[C@@H](CO)NCCN[C@@H](CC)CO", "note": "[ETHAMBUTOL]", "values": [
      {"measurement": "MIC99", "setting": "[10]; [18]", "value": 5, "unit": "µg/mL"},
      {"measurement": "inhibition of growth at 5 µg/mL", "setting": "[12]; Mycobacterium tuberculosis, H37Rv, read-out: GI", "value": 100, "unit": "%"}
    ]},
    {"smiles": "NNC(=O)c1ccncc1", "note": "[ISONIAZID]", "values": [
      {"measurement": "inhibition of growth at 0.1 µg/mL", "setting": "[13]", "value": 100, "unit": "%"},
      {"measurement": "MIC99", "setting": "[10]; [18]", "value": 0.1, "unit": "µg/mL"}
    ]},
    {"smiles": "CC1COc2c(N3CCN(C)CC3)c(F)cc3c(=O)c(C(=O)O)cn1c23", "note": "(stereo not given) [OFLOXACIN]", "values": [
      {"measurement": "inhibition of growth at 2 µg/mL", "setting": "[14]", "value": 100, "unit": "%"},
      {"measurement": "MIC99", "setting": "[10]; [18]", "value": 2, "unit": "µg/mL"}
    ]},
    {"smiles": "NC(=O)c1cnccn1", "note": "[PYRAZINAMIDE]", "values": [
      {"measurement": "inhibition of growth at 100 µg/mL", "setting": "[15]", "value": 100, "unit": "%"},
      {"measurement": "MIC99", "setting": "[10]; [18]", "value": 100, "unit": "µg/mL"}
    ]},
    {"smiles": "CO[C@H]1/C=C/O[C@@]2(C)Oc3c(C)c(O)c4c(O)c(c(/C=N/N5CCN(C)CC5)c(O)c4c3C2=O)NC(=O)/C(C)=C\\C=C\\[C@H](C)[C@H](O)[C@@H](C)[C@@H](O)[C@@H](C)[C@H](OC(C)=O)[C@@H]1C", "note": "[RIFAMPIN]", "values": [
      {"measurement": "inhibition of growth at 1 µg/mL", "setting": "[16]", "value": 100, "unit": "%"},
      {"measurement": "CC50 at 72 h", "setting": "[1]", "value": "> 500", "unit": "µg/mL"},
      {"measurement": "inhibition of growth at 1 µg/mL", "setting": "[17]", "value": 100, "unit": "%"},
      {"measurement": "MIC99", "setting": "[10]; [18]", "value": 1, "unit": "µg/mL"},
      {"measurement": "MIC99", "setting": "[2]", "value": 1, "unit": "µg/mL"}
    ]},
    {"smiles": "CN[C@@H]1[C@H](O[C@H]2[C@H](O[C@H]3[C@H](O)[C@@H](O)[C@H](N=C(N)N)[C@@H](O)[C@@H]3N=C(N)N)O[C@@H](C)[C@]2(O)C=O)O[C@@H](CO)[C@H](O)[C@H]1O", "note": "[STREPTOMYCIN]", "values": [
      {"measurement": "inhibition of growth at 0.1 µg/mL", "setting": "[13]", "value": 100, "unit": "%"},
      {"measurement": "MIC99", "setting": "[10]; [18]", "value": 0.1, "unit": "µg/mL"}
    ]}
  ]
}
